{
  "source": "ChEMBL document CHEMBL2046411",
  "about": "“Virtual Screening and X-ray Crystallography for Human Kallikrein 6 Inhibitors with an Amidinothiophene P1 Group” (ACS Med Chem Lett, 2012)",
  "target": "Kallikrein-6 (Homo sapiens, UniProt Q92876)",
  "assay": "Inhibition of N-terminus His6-tagged human kallikrein 6 expressed in baculovirus infected insect sf9 cells using Boc-Phe-Ser-Arg-AMC as substrate by fluorescence analysis",
  "data": [
    {"smiles": "COc1ccc2ccc(S(=O)(=O)N(Cc3ccccc3)[C@H]3CCN(Cc4ccc(C(=N)N)s4)C3=O)cc2c1", "values": [
      {"measurement": "IC50", "result": 1500, "unit": "nM"}
    ]}
  ]
}
